Earlier results on 2 substances are cited in PMC4163017 (ChemMedChem, 2014).

One data set addresses IRES SLIIb RNA. The note with it: read-out: KD (dissociation constant); free peptide GGHYrFK-amide; ref [4].
The test system of data set [1] is HCV RNA replicon in ET (luc-ubi-neo/ET) Huh7 cells. The note with it: HCV cellular replicon assay; ref [4]. In general terms: In antiviral work, replicon cells carry a viral genome segment that copies itself.
In data set [2] the test system is ET (luc-ubi-neo/ET) Huh7 human hepatoma cells. Conditions: 72 h, CytoTox-1, previously reported, ref [4].
Data set [3] relates to 5'-fluorescein-labeled IRES SLIIb RNA. The note with it: ref [4].
Where [4] appears, read: fixed catalyst concentration with varying [RNA].

“And” between values parts separate entries of the source, which are not always exact repeats. Equal values may be shown once. Read-outs that look alike come from different tables or passages of the source.

A word on the Kd: it is the free concentration of one partner at which half of the binding sites on the other are occupied at equilibrium, for simple one-to-one binding. Regarding GGHYrFK-amide, the Kd on IRES SLIIb RNA was 44 nM.

As a reminder, the Km is the substrate concentration at which the rate is half of its maximum. Broadly, the kcat is the number of substrate molecules converted per active site and unit of time at saturation. What is called kcat/KM is the second-order rate constant that governs catalysis at low substrate concentration. In the case of Cu-GGHYrFK-amide [1-Cu], the Kd at IRES SLIIb RNA is 44 ± 2 nM. The “activity in combination with recombinant interferon alpha-2b” value in data set [1] is recorded as “additive to slightly synergic activity”. For the same substance, in data set [2], the “Cytotoxicity TC50” value was “greater than 100 µM”. Besides, the “Cytotoxicity TC50” value in data set [2] (listed as [GGHYrFK-amide]-Cu^2+, 1-Cu) is greater than 100000 nM. Moreover, in data set [3] (setting [4]), the Km is 0.85 ± 0.09 µM; the kcat was 0.00883 s⁻¹ and 0.00883 ± 0.00033 s⁻¹; the kcat/KM is 10300 M⁻¹ s⁻¹. Also, the “Turnover Number” value in data set [3] is 32.
